Common to all, as to assay: NCI anticancer screen, dose series, 48 h
Assay [1] relates to SK-MEL-2 melanoma.
Assay [2] deals with DU-145 prostate.
In assay [3] the test system is MALME-3M melanoma.
For assay [4], the system named is K-562 leukemia.
Assay [5] has as its system SW-620 colon.
Assay [6] has as its system SK-OV-3 ovarian.
Assay [7] has as its system HL-60(TB) leukemia.
In assay [8] the test system is LOX IMVI melanoma.
Assay [9] has as its system IGROV1 ovarian.
For assay [10], the system named is RXF 393 renal.

“And” between values parts separate entries of the source, which are not always exact repeats. Equal entries are not always repeated.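 Step 1: Grow cells in 96-well plates. Step 2: Expose to compound for 48 hours at 5 concentrations. Step 3: Interpolate endpoints linearly; if unreached, use highest concentration. The concentration for 50% growth inhibition is given as GI50. The concentration for full growth arrest is given as TGI.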

For the molecule `O=C1CCc2c(sc3[nH]c(=S)n(Cc4ccc(Cl)cc4)c(=O)c23)C1`, the GI50 in [1] was 2070 nM; in [2], 2470 nM; in [3], 972 nM; in assay [4], 324 nM; in [5], 393 nM; in assay [6] it was 2860 nM. The GI50 in assay [7] was 347 nM; in assay [8], 410 nM; in assay [9], 454 nM; in assay [10] it was 401 nM. Moreover, the TGI in [1] was 6120 nM; in assay [2], more than 100000 nM; in [3] it was 3900 nM; in [4], more than 100000 nM; in assay [5] it was more than 100000 nM; in assay [6], 8920 nM. Further, the TGI in assay [7] is 1810 nM; in assay [8], 5400 nM; in assay [9], more than 100000 nM; in assay [10], 5050 nM.

As to `C=C1CC2(OC1=O)C(=O)Nc1ccccc12` (stereo not given), the GI50 is 13400 nM in assay [1]; 2540 nM in assay [2]; 1240 nM in assay [3]; 1880 nM in assay [4]; 1380 nM in assay [5]; 26700 nM in assay [6]. Besides, the GI50 in assay [7] is 1730 nM; in [8], 1560 nM; in assay [9], 2360 nM; in assay [10] it was 1450 nM. Also, the TGI in assay [1] is 30000 nM; in assay [2], 8470 nM; in assay [3] it was 2640 nM; in [4], 10000 nM; in assay [5], 3220 nM; in assay [6] it was more than 100000 nM. The TGI came out at 3850 nM in [7], 3030 nM in assay [8], 7720 nM in [9] and 2900 nM in assay [10].

Turning to `CN(Cc1cc(C(C)(C)C)cc(Br)c1O)Cc1cc(C(C)(C)C)cc(Br)c1O`, the TGI in [1] came to 5860 nM; in assay [2] it was 19300 nM; in assay [3] it was 13700 nM; in [4], 14000 nM; in assay [5], 16900 nM; in assay [6] it was 22200 nM. The TGI is 7710 nM in assay [7], 14800 nM in assay [8], 13500 nM in assay [9] and 7980 nM in assay [10].

In the case of `COc1cc(Nc2ncc(F)c(Nc3ccc4c(n3)N(COP(=O)(O)O)C(=O)C(C)(C)O4)n2)cc(OC)c1OC`, the GI50 in [1] was 5810 nM; in assay [2], 3690 nM and 3080 nM; in [3] it was 3000 nM and 5930 nM; in assay [4], 5300 nM and 3410 nM; in [5] it was 3600 nM and 3980 nM; in assay [6], 972 nM and 707 nM. For the same molecule, the GI50 in [7] is 4190 nM and 6050 nM; in assay [8], 1380 nM and 1090 nM; in assay [9] it was 457 nM and 342 nM; in [10], 100 nM and 256 nM. Besides, the TGI is 53300 nM and > 10000 nM in assay [1]; 22300 nM and > 10000 nM in [2]; 17800 nM and > 10000 nM in [3]; more than 100000 nM in [4]; more than 84400 nM in assay [5]; 3460 nM and 2980 nM in assay [6]. The TGI in assay [7] is 32600 nM and > 10000 nM; in [8] it was 2990 nM and 2460 nM; in assay [9] it was 2220 nM and 2110 nM; in assay [10], 621 nM and 936 nM.

For `CCN(CC)c1ccc(C(=O)c2ccc(N(CC)CC)cc2)cc1`, the GI50 in [1] is 493 nM; in assay [2] it was 623 nM; in assay [3], 334 nM; in assay [4], 150 nM; in assay [5], 326 nM; in assay [6], 676 nM. Besides, the GI50 in [7] was 407 nM; in [8], 620 nM; in [9] it was 602 nM; in assay [10] it was 444 nM. Further, the TGI in assay [1] worked out at 14900 nM; in [2] it was 7230 nM; in [3] it was 17400 nM; in assay [4], 10200 nM; in [5], 17000 nM; in assay [6] it was 56800 nM. Further, the TGI in [7] was 2500 nM; in [8], 28300 nM; in [9], more than 100000 nM; in [10], 1630 nM.

Regarding `Cc1cnc(C(=O)NNc2nc3sc4c(c3c(=O)n2C)C(C)CCC4)cn1` (stereo not given), the GI50 in assay [1] was 1020 nM; in [2], 458 nM; in assay [3], 544 nM; in assay [4], 433 nM; in assay [5], 408 nM; in [6], 628 nM. For the same molecule, the GI50 in assay [7] was 269 nM; in assay [8], 304 nM; in assay [9], 292 nM; in assay [10] it was 926 nM. The TGI in [1] is 8880 nM; in [2], 4150 nM; in assay [3], 3290 nM; in [4] it was more than 100000 nM; in [5] it was 6660 nM; in assay [6], 5010 nM. In addition, the TGI in [7] turned out to be 765 nM; in assay [8], 1750 nM; in assay [9] it was 2800 nM; in assay [10], 3600 nM.

For the molecule `Cc1cc(N2CCOCC2)cc2[nH]c(-c3c(NC[C@@H](O)c4cccc(Cl)c4)cc[nH]c3=O)nc12`, the GI50 in [1] is 1980 nM; in assay [2], 1420 nM; in [3], 1680 nM; in [4], 2940 nM; in assay [5], 1050 nM; in assay [6], 4560 nM. For the same molecule, the GI50 in assay [7] is 56.7 nM; in [8], 387 nM; in [9] it was 912 nM; in [10], 567 nM. Also, the TGI in [1] amounted to 5980 nM; in assay [2], 14700 nM; in assay [3] it was 14800 nM; in [4], 13000 nM; in [5], 11200 nM; in [6], 25000 nM. The TGI in assay [7] was 2450 nM; in assay [8], 2190 nM; in assay [9] it was 5280 nM; in [10] it was 2110 nM.

For `O=C1C(=Cc2c(O)cc(O)cc2O)C(=O)c2ccccc21`, the TGI in assay [1] is more than 56500 nM; in assay [2] it was 38500 nM; in [3], more than 59300 nM; in [4] it was more than 93200 nM; in assay [5], more than 56500 nM; in [6], more than 100000 nM. Further, the TGI in assay [7] is 43500 nM; in assay [8], 29200 nM; in [9], more than 59800 nM; in assay [10], 27900 nM.

`O=C1c2ccccc2-c2c1c1ccccc1c(=O)n2CCCn1ccnc1`: the GI50 in [1] is 7780 nM; in assay [2], 1410 nM; in [3], 2450 nM; in [4], 1450 nM; in assay [5], 949 nM; in [6], 6680 nM. Also, the GI50 was 200 nM in [7], 924 nM in [8], 2860 nM in assay [9] and 6150 nM in assay [10]. Further, the TGI in assay [1] was more than 100000 nM; in [2], 6940 nM; in assay [3], 5750 nM; in [4], 4640 nM; in assay [5], 30200 nM; in [6], more than 100000 nM. Also, the TGI is 2180 nM in [7], 4330 nM in assay [8], more than 100000 nM in [9] and more than 100000 nM in assay [10].

For `C[N+]1=C(/C=C\C=C\c2ccccc2)C(C)(C)c2ccccc21`, the GI50 in assay [1] was 1690 nM; in assay [2], 4620 nM; in assay [3], 1870 nM; in assay [4] it was 442 nM; in [5], 1380 nM; in assay [6], 11300 nM. The GI50 in assay [7] was 258 nM; in [8] it was 1310 nM; in assay [9] it was 2060 nM; in assay [10] it was 1750 nM. In addition, the TGI is 4310 nM in assay [1]; 16100 nM in assay [2]; 4370 nM in assay [3]; 7280 nM in assay [4]; 4080 nM in assay [5]; 23900 nM in [6]. Besides, the TGI in [7] is 1620 nM; in assay [8], 2700 nM; in [9], 8200 nM; in [10], 3620 nM.

Consider `Cc1cnc(C(=O)Nc2nc3ccc(S(=O)(=O)Nc4ccc(C5(C(F)(F)F)CC5)cc4)cc3[nH]2)cn1`, for which the GI50 in assay [1] was 784 nM; in [2], 357 nM; in assay [3] it was 345 nM; in [4] it was 216 nM; in assay [5], 369 nM; in assay [6], 1570 nM. The GI50 in assay [7] is 296 nM; in assay [8], 539 nM; in assay [9], 606 nM; in assay [10], 226 nM. Moreover, the TGI in assay [1] was found to be 20100 nM; in assay [2], 2230 nM; in [3], 8650 nM; in [4] it was 12700 nM; in [5], 5920 nM; in [6], 22700 nM. Also, the TGI in assay [7] turned out to be 924 nM; in assay [8], 5600 nM; in assay [9] it was 5020 nM; in assay [10], 1110 nM.

Turning to `Cc1ncc(C(=O)Nc2ccc(CN3CCN(C)CC3)c(C(F)(F)F)c2)cc1C#Cc1cnc(N)cc1C#N`, the GI50 in [1] was 232 nM; in assay [2] it was 278 nM; in [3], 19.6 nM; in assay [4] it was 1.67 nM; in [5], 802 nM; in assay [6], 401 nM. Also, the GI50 in assay [7] was 481 nM; in assay [8] it was 70.9 nM; in assay [9], 103 nM; in [10], 227 nM. For the same molecule, the TGI in assay [1] was 1030 nM; in assay [2] it was 2750 nM; in assay [3], 125 nM; in [4], 3210 nM; in assay [5], 3200 nM; in assay [6], 1800 nM. The TGI is 2850 nM in assay [7], 800 nM in assay [8], 2060 nM in assay [9] and 1470 nM in assay [10].

For the origin of these results see PubChem BioAssay (NCI).
